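Dose response: 5 concentrations. Exposure: 48 h. Format: 96-well plates. Endpoint: linear interpolation; highest concentration if not reached. Here, GI50 denotes the concentration required for 50% inhibition of growth. At the TGI there is no net growth.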
Experiments:
Assay in all cases: inhibition of tumour cell growth, NCI panel, 48 h
[1] = system: 786-0 renal
[2] = system: SN12C renal
[3] = system: HS 578T breast
[4] = system: OVCAR-8 ovarian
[5] = system: MDA-MB-231 breast
[6] = system: M14 melanoma
[7] = system: MALME-3M melanoma
[8] = system: PC-3 prostate
[9] = system: OVCAR-5 ovarian
[10] = system: SK-OV-3 ovarian
[11] = system: SNB-19 CNS
[12] = system: OVCAR-4 ovarian
[13] = system: HOP-62 NSCLC
[14] = system: BT-549 breast
[15] = system: MDA-MB-435
[16] = system: A498 renal
[17] = system: SF-295 CNS
[18] = system: IGROV1 ovarian
[19] = system: HOP-92 NSCLC
[20] = system: SK-MEL-5 melanoma
[21] = system: SK-MEL-2 melanoma
[22] = system: DU-145 prostate
[23] = system: SK-MEL-28 melanoma
[24] = system: TK-10 renal
[25] = system: NCI-H23 lung
[26] = system: OVCAR-3 ovarian
[27] = system: RXF 393 renal
[28] = system: MCF7 breast
[29] = system: NCI-H522 lung
[30] = system: K-562 leukemia
[31] = system: T-47D breast
[32] = system: NCI/ADR-RES ovarian
[33] = system: EKVX NSCLC
[34] = system: UACC-62 melanoma
[35] = system: SW-620 colon
[36] = system: SF-268 CNS
[37] = system: CCRF-CEM leukemia
[38] = system: HL-60(TB) leukemia
[39] = system: U251 CNS
[40] = system: HT29 colon
[41] = system: HCT-15 colon
[42] = system: RPMI-8226 leukemia
[43] = system: COLO 205 colon

In the case of `O=C1c2cc3c(cc2-c2c1c1ccc(F)cc1c(=O)n2C[C@H](O)[C@H](O)[C@H](O)CO)OCO3`, the GI50 [1] is reported as 209 nM, the TGI [1] is reported as 21600 nM and the GI50 [2] is reported as 190 nM. For the same compound, the TGI [2] was 792 nM, the GI50 [3] was 506 nM and the TGI [3] was 9620 nM. It also gave a GI50 [4] of 203 nM, a TGI [4] of 660 nM and a GI50 [5] of 342 nM. For the same compound, the TGI [5] was 6180 nM, the GI50 [6] was 180 nM and the TGI [6] was 4000 nM. For the same compound, the GI50 [7] was 209 nM, the TGI [7] was 831 nM and the GI50 [8] was 204 nM. For the same compound, the TGI [8] was 14900 nM, the GI50 [9] was 253 nM and the TGI [9] was 866 nM. The GI50 [10] was 186 nM, the TGI [10] was 694 nM and the GI50 [11] was 92.7 nM. The TGI [11] was > 100000 nM, the GI50 [12] was 280 nM and the TGI [12] was 34900 nM. The GI50 [13] was 112 nM, the TGI [13] was 520 nM and the GI50 [14] was 149 nM. The TGI [14] was 1050 nM, the GI50 [15] was 174 nM and the TGI [15] was 409 nM. It also gave a GI50 [16] of 142 nM, a TGI [16] of 327 nM and a GI50 [17] of 62.4 nM. For the same compound, the TGI [17] was 513 nM, the GI50 [18] was 322 nM and the TGI [18] was > 100000 nM. For the same compound, the GI50 [19] was 243 nM, the TGI [19] was 896 nM and the GI50 [20] was 141 nM. It also gave a TGI [20] of 277 nM, a GI50 [21] of 233 nM and a TGI [21] of 596 nM. The GI50 [22] was 199 nM, the TGI [22] was 1590 nM and the GI50 [23] was 282 nM. The TGI [23] was 1510 nM, the GI50 [24] was 248 nM and the TGI [24] was 873 nM. It also gave a GI50 [25] of 129 nM, a TGI [25] of 482 nM and a GI50 [26] of 167 nM. For the same compound, the TGI [26] was 431 nM, the GI50 [27] was 193 nM and the TGI [27] was 502 nM. The GI50 [28] was 25.9 nM, the TGI [28] was 215 nM and the GI50 [29] was 31.3 nM. The TGI [29] was 228 nM, the GI50 [30] was 136 nM and the TGI [30] was > 100000 nM. For the same compound, the GI50 [31] was 41.9 nM, the TGI [31] was 391 nM and the GI50 [32] was 207 nM. It also gave a TGI [32] of 2140 nM, a GI50 [33] of 357 nM and a TGI [33] of 4630 nM. It also gave a GI50 [34] of 40 nM, a TGI [34] of 195 nM and a GI50 [35] of 96.7 nM. The TGI [35] was > 100000 nM, the GI50 [36] was 70.4 nM and the TGI [36] was 2970 nM. It also gave a GI50 [37] of 47.9 nM, a TGI [37] of 31300 nM and a GI50 [38] of 148 nM. The TGI [38] was 749 nM, the GI50 [39] was 50 nM and the TGI [39] was 258 nM. It also gave a GI50 [40] of 142 nM, a TGI [40] of 397 nM and a GI50 [41] of 199 nM. The TGI [41] was 724 nM, the GI50 [42] was 505 nM and the TGI [42] was 5600 nM. For the same compound, the GI50 [43] was 193 nM and the TGI [43] was 959 nM.
